Experimental data: paper PMC6237173, “Synthesis of novel 6,7-dimethoxy-4-anilinoquinolines as potent c-Met inhibitors” (Journal of Enzyme Inhibition and Medicinal Chemistry, 2018)

Assays:
[1] = tested on: A549 (human lung cancer) cell line; assay: Cell proliferation assay (MTT), A549; type: cell-based; conditions: 48 h exposure, n = 3 (mean ± SD), read-out: Proliferative inhibition IC50, A549
Description: (§1) The anti-proliferative activities of the prepared compounds (12a-12s) were evaluated against A549, MCF-7 and MKN-45 cell lines by MTT assay in vitro. Briefly, tumour cells were cultured to log phase in RPMI 1640 medium supplemented with 10% foetal bovine serum (FBS). After diluting to 2 × 10^4 cells mL^−1 with the complete medium, 100 µL of the obtained cell suspension was added to each well of 96-well culture plates. Subsequently, incubation was performed at 37 °C in 5% CO2 for 24 h before the anti-proliferative assessment. Tested samples at pre-set concentrations were added to 6 wells with cabozantinib as a positive reference. After 48 h exposure period, 40 µL of PBS containing 2.5 mg mL^−1 of MTT was added to each well. Four hours later, 100 µL extraction solution (10% SDS-5% isobutyl alcohol-0.010M HCl) was added. After an overnight incubation at 37°C, the absorbance was measured at a wavelength of 570 nm with an ELISA microplate reader. All compounds were tested three times in each tumour cell lines. The IC50 values were the averages of three determinations and calculated by concentration-response curve fitting method.
(§2) All the synthesised compounds […] were evaluated for their antiproliferation activities against A549 (human lung cancer), MCF-7 (human breast cancer) and MKN-45 (human gastric cancer) cell lines by MTT assay, using cabozantinib as the positive control.

[2] = tested on: MCF-7 (human breast cancer) cell line; assay: Cell proliferation assay (MTT), MCF-7; type: cell-based; conditions: MCF7, 48 h exposure, n = 3 (mean ± SD), read-out: Proliferative inhibition IC50, MCF-7
Description: as §1, §2

[3] = biological target: T1, c-Met kinase (Homo sapiens, UniProt P08581); assay: c-Met inhibition assay (Caliper motility shift assay); type: biochemical
T1 construct: purchased Carna
T1 sequence (P08581 25-1390): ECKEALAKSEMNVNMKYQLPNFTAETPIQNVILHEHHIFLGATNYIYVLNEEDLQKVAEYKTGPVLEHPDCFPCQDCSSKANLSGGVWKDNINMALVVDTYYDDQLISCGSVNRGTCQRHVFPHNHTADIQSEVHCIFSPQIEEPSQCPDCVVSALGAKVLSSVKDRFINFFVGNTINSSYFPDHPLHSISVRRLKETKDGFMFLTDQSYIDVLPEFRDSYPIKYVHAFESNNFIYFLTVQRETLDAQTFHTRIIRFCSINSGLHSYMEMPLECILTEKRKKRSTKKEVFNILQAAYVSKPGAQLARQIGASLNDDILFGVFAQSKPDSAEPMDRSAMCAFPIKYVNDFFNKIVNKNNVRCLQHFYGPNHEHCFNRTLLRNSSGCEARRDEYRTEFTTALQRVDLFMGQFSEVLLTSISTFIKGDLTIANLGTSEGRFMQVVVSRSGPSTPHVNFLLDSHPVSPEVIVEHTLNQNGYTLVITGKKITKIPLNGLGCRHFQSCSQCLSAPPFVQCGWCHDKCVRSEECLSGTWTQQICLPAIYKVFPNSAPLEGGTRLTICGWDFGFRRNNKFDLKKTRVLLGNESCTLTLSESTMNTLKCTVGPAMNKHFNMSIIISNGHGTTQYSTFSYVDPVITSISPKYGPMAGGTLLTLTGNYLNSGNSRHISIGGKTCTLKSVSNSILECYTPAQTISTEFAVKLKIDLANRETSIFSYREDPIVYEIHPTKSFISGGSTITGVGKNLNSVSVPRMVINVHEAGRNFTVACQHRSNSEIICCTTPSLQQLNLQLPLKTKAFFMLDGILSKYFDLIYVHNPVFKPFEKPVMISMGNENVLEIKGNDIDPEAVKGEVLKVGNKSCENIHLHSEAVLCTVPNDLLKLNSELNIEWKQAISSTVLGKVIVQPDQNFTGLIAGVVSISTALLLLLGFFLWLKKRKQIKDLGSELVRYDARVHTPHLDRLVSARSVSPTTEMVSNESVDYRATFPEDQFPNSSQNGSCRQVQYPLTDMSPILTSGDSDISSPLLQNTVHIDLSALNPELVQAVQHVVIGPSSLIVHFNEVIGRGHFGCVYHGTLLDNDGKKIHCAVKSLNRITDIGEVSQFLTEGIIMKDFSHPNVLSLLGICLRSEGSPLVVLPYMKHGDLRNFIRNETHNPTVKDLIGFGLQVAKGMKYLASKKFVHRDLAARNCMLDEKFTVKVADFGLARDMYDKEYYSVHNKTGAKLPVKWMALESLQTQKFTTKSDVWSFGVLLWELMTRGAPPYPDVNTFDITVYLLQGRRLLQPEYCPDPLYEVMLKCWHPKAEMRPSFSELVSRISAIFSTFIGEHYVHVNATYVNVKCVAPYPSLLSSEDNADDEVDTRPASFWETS
Description: A Caliper motility shift assay was applied to test the potency of synthesised compounds against c-Met kinase. Briefly, the compounds were dissolved in DMSO (Sigma) at 0.5 mM concentration, and then were diluted 50× to the final desired highest inhibitor concentration (10 μM) in reaction by DMSO. For all compounds, 100 μL of the diluted compound solution in tubes was transferred to a well on a 96-well plate (Corning) and was serially diluted 10× by transferring 10 μL dilution to 90 μL DMSO in the next well. 100 μL DMSO was added to two empty wells in the same 96-well plate for no compound control and no enzyme control. The plate was marked as source plate. 10 μL of compound solution from source plate was transferred to a new 96-well plate as the intermediate plate. […] After that, 5 μL solution from each well of the intermediate plate was transferred to a 384-well plate (Corning) as the assay plate in duplicates.c-Met kinase (Carna) was added in 1× kinase base buffer to prepare 2.5× enzyme solution, and FAM-labled peptide (GL Biochem) and ATP (Sigma) were added in 1× kinase base buffer to prepare 2.5× peptide solution. 10 μL of 2.5× enzyme solution was added to each well of the 384-well assay plate that already contained 5 μL of compound in 10% DMSO, and then incubated at room temperature for 10 min. […] The data were collected on Caliper and the conversion data were copied from Caliper program.
IC50 values were calculated from three independent experiments by fitting the data in XLfit with the following equation: Y = Bottom + (Top-Bottom)/(1 + (IC50/X)^HillSlope).

[4] = tested on: MKN-45 (human gastric cancer) cell line; assay: Cell proliferation assay (MTT), MKN-45; type: cell-based; conditions: 48 h exposure, n = 3 (mean ± SD), read-out: Proliferative inhibition IC50, MKN-45
Description: as §1, §2

COc1cc2nccc(Nc3ccc4nc(-c5cc(F)ccc5Br)[nH]c4c3)c2cc1OC [Compound 12s, N-(2–(2-bromo-5-fluorophenyl)-1H-benzo[d]imidazol-6-yl)-6,7-dimethoxyquinolin-4-amine]
IC50 [1]: > 100 µM
IC50 [2]: 92.7 ± 5.3 µM
c-Met inhibition % Inhibition (10 μΜ) ([3]; 10 μΜ compound, n = 3 (mean ± SD)): 23.0 ± 1.1%
c-Met inhibitory activity in words ([3]; SAR statement, ortho-substituted compounds): loss of activity
IC50 [4]: > 100 µM
melting point: 284 to 286 °C
